Data published in patent publication EP0109623A1, “Phenyl-propanol amines, their preparation and use” (BASF Aktiengesellschaft, priority 1982, dated 1984).
Structures can show the parent of a compound that is named as a salt. Where two headings read alike, the source gives them in different places.

Key:
Noradrenalin-Aufnahme = Noradrenalin-Aufnahme (Rattus norvegicus, UniProt Q9WTR4); assay: Inhibition of 3H-noradrenaline uptake in rat brain synaptosomes (hippocampus); type: biochemical, Ratte; conditions: for IC50: rat hippocampus synaptosomes, 3H-Noradrenalin ca. 10 nM, 37°C, read-out: Hemmung der Neurotransmitter-Aufnahme in Synaptosomen Noradrenalin IC50; for absolute Wirkstärke bei der Hemmung der Noradrenalin-Aufnahme: potency relative to Imipramin
Source text: (§1) Als Wirkungsmechanismus einer Gruppe therapeutisch vielfach genutzter Antidepressiva (z.B. tricyclische Antidepressiva) ist eine Hemmung der neuronalen Aufnahme von Transmittersubstanzen (Noradrenalin und/oder Serotonin) anzusehen. Diese Eigenschaft wird in biologischen Testmodellen zur Charakterisierung von potentiellen Antidepressiva verwendet. Es wurde folgende Methodik eingesetzt: • Hemmung der Neurotransmitter-Aufnahme in Rattenhirn-Synaptosomen
(§2) Hippocampus und Cortex aus Rattenhirn wurden präpariert und in 0,32 M Sucrose-Lösung homogenisiert. Durch differentielle Zentrifugation wurden Synaptosomen erhalten, die in Pufferlösung suspendiert wurden. Die Synaptosomen sind in der Lage, aus dem umgebenden Medium zugefügte Neurotransmittersubstanzen (z.B. Noradrenalin oder Serotonin) aktiv aufzunehmen. Dieser Vorgang ist durch Aufnahme-Hemmer konzentrationsabhängig antagonisierbar. Die Synaptosomen wurden mit den Testsubstanzen in verschiedenen Konzentrationen versetzt und anschließend mit ^3H-Noradrenalin (Hippocampus) bzw. ^3H-Serotonin (Cortex) bei 37°C inkubiert. Die Substratkonzentration betrug ca. 10 nM. Nach Stoppen der Aufnahme durch Verdünnen mit eisgekühlter Pufferlösung wurden die Synaptosomen i abzentrifugiert und die ^3H-Aktivität im Sediment gemessen. Der Blindwert wird durch Inkubation bei 0°C ermittelt.
(§3) Aus den bei verschiedenen Inhibitor-Konzentrationen gegen Kontrolle ermittelten Hemmwerten wurde durch lineare Regression nach logit-log-Transformation die mittlere Hemmkonzentration (ICso) berechnet.

Serotonin-Aufnahme = target: T1, Serotonin-Aufnahme (Rattus norvegicus, UniProt P31652); assay: Inhibition of 3H-serotonin uptake in rat brain synaptosomes (cortex); type: biochemical, Ratte
T1 construct: Durch differentielle Zentrifugation wurden Synaptosomen erhalten; from tissue; host or cells: rat brain cortex synaptosomes
Source text: as §1, §2, §3

[1] = rat cortex synaptosomes, 3H-Serotonin ca. 10 nM, 37°C, read-out: Hemmung der Neurotransmitter-Aufnahme in Synaptosomen Serotonin IC50

Sequence of Noradrenalin-Aufnahme (Q9WTR4 1-597): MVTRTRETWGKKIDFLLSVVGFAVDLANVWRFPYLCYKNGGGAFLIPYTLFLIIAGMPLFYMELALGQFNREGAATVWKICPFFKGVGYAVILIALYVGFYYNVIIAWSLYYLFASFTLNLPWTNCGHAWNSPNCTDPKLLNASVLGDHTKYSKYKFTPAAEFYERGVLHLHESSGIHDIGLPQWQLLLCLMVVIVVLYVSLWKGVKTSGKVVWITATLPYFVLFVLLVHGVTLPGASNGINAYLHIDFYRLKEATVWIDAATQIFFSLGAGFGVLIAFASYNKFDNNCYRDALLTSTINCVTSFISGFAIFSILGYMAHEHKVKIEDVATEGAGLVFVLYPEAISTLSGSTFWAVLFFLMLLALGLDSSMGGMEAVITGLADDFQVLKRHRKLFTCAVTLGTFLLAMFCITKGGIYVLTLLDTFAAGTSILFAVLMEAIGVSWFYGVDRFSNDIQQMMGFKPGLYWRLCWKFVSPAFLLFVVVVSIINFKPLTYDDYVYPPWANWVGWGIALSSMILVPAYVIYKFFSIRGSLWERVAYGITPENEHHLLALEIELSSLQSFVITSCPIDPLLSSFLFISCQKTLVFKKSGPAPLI
T1 sequence (P31652 whole entry): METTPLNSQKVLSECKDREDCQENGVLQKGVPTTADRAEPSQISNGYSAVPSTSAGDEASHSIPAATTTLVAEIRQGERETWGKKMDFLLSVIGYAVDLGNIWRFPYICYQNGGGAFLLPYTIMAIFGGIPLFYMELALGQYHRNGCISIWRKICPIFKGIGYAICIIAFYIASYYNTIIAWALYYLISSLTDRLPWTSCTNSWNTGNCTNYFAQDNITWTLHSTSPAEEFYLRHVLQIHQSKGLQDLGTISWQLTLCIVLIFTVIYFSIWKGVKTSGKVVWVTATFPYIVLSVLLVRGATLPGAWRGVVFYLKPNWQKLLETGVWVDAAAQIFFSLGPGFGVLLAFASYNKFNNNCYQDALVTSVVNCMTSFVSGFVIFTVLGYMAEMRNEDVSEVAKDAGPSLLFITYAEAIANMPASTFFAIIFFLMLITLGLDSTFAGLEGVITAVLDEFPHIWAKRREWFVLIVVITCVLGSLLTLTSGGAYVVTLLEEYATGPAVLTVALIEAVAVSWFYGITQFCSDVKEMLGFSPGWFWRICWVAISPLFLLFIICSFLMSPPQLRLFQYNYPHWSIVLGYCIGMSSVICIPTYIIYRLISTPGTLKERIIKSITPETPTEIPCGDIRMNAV

COc1ccc(OCC2CN(C)CCC2c2ccccc2)cc1 (stereo not drawn) [Femoxetin, reference compound]
IC50 (Noradrenalin-Aufnahme): 0.33 µM

CN(C)CC(COc1ccccc1)C(O)c1ccc(F)cc1 (stereo not drawn) [Beispiel 1.3, 1-Dimethylamino-3-(4-fluorphenyl)-2-phenoxymethyl-propanol-(3) Hydrochlorid]
IC50 (Serotonin-Aufnahme; [1]): 0.49 µM

CCC(O)(c1ccccc1)C(COc1ccc(Cl)cc1)CN(C)C (stereo not drawn) [Beispiel 2.7, 2-(4-Chlorphenoxymethyl)-1-dimethylamino-3-phenyl-pentanol-(3) Hydrochlorid]
IC50 (Noradrenalin-Aufnahme): 0.15 µM | IC50 (Serotonin-Aufnahme; [1]): 0.0031 µM

C=CCOC(c1ccccc1)C(COc1ccccc1)CN(C)C (stereo not drawn) [Beispiel 6, 3-Allyloxy-1-dimethylamino--2-phenoxymethyl-3-phenyl-propan]
IC50 (Noradrenalin-Aufnahme): 0.017 µM | IC50 (Serotonin-Aufnahme): 0.056 µM

CCC(O)(c1ccccc1)C(COc1ccc(Cl)cc1)CN(C)C (stereo not drawn) [Beispiel 2.9, 2-(4-Chlorphenoxymethyl)-1-dimethylamino-3-phenyl-pentanol-(3) Hydrochlorid]
IC50 (Noradrenalin-Aufnahme): 0.068 µM | IC50 (Serotonin-Aufnahme; [1]): 0.1 µM

CCC(O)(c1ccccc1)C(COc1ccccc1)CN(C)C (stereo not drawn) [Beispiel 2, 1-Dimethylamino-3-phenyl-2-phenoxymethyl-pentanol-(3) Hydrochlorid]
IC50 (Noradrenalin-Aufnahme): 0.011 µM | IC50 (Serotonin-Aufnahme; [1]): 0.025 µM

CCCC(O)(c1ccccc1)C(COc1ccccc1)CN(C)C (stereo not drawn) [Beispiel 2.5, 1-Dimethylamino-2-phenoxymethyl-3-phenyl-hexanol-(3) Hydrochlorid]
IC50 (Noradrenalin-Aufnahme): 0.013 µM | IC50 (Serotonin-Aufnahme; [1]): 0.037 µM

CN(C)CC(COc1ccc(Cl)cc1)C(C)(O)c1ccccc1 (stereo not drawn) [Beispiel 2.8, 2-(4-Chlorphenoxymethyl)-1-dimethylamino-3-phenyl-butanol-(3) Hydrochlorid]
IC50 (Noradrenalin-Aufnahme): 0.16 µM | IC50 (Serotonin-Aufnahme; [1]): 0.0038 µM

CCOC(=O)OC(c1ccccc1)C(COc1ccccc1)CN(C)C (stereo not drawn) [Beispiel 5.3, 1-Dimethylamino-3-ethoxycarbonyloxy-2-phenoxymethyl-3-phenyl-propan Hydrochlorid]
IC50 (Noradrenalin-Aufnahme): 0.02 µM | IC50 (Serotonin-Aufnahme): 0.3 µM

C=CC(O)(c1ccccc1)C(COc1ccccc1)CN(C)C (stereo not drawn) [Beispiel 2.12, l-Dimethylamino-2-phenoxymethyl-3-phenyl-pent-4-enol-(3) Hydrochlorid]
IC50 (Noradrenalin-Aufnahme): 0.1 µM | IC50 (Serotonin-Aufnahme; [1]): 0.069 µM

CN(C)CC(COc1ccccc1)C(O)c1ccccc1 (stereo not drawn) [Beispiel 1, 1-Dimethylamino-2-phenoxymethyl-3-phenyl-propanol-(3)]
IC50 (Noradrenalin-Aufnahme): 0.0052 µM | IC50 (Serotonin-Aufnahme; [1]): 0.19 µM

CN(C)CC(COc1ccc(Cl)cc1)C(O)(c1ccccc1)c1ccccc1 (stereo not drawn) [Beispiel 2.3, 2-(4-Chlorphenoxymethyl)1-dimethylamino-3,3-diphenyl-propanol-(3)]
IC50 (Noradrenalin-Aufnahme): 0.094 µM | IC50 (Serotonin-Aufnahme; [1]): 0.026 µM

CN(C)CC(COc1ccccc1)C(C)(O)c1ccccc1 (stereo not drawn) [Beispiel 2.4, 1-Dimethylamino-2-phenoxymethyl-3-phenyl-butanol-(3) Hydrochlorid]
IC50 (Noradrenalin-Aufnahme): 0.036 µM | IC50 (Serotonin-Aufnahme; [1]): 0.066 µM

CC(=O)OC(c1ccccc1)C(COc1ccccc1)CN(C)C.Cl (stereo not drawn) [Beispiel 5, 3-Acetoxy-1-dimethylamino-2-phenoxymethyl-3-phenylpropan Hydrochlorid]
absolute Wirkstärke bei der Hemmung der Noradrenalin-Aufnahme (Noradrenalin-Aufnahme): 8 -fach | IC50 (Noradrenalin-Aufnahme): 0.0017 µM | IC50 (Serotonin-Aufnahme): 0.4 µM

CN(C)CC(COc1ccc(Cl)cc1)C(O)c1ccccc1 (stereo not drawn) [Beispiel 1.2, 2-(4-Chlorphenoxymethyl)-1-dimethylamino-3-phenyl-propanol-(3)]
IC50 (Noradrenalin-Aufnahme): 0.18 µM | IC50 (Serotonin-Aufnahme; [1]): 0.02 µM

CN(C)CC(COc1ccccc1)C(O)(c1ccccc1)c1ccccc1 (stereo not drawn) [Beispiel 2.2, 1-Dimethylamino-3,3-diphenyl-2-phenoxymethyl-propanol-(3)]
IC50 (Noradrenalin-Aufnahme): 0.094 µM | IC50 (Serotonin-Aufnahme; [1]): 0.2 µM

CCCCCCCCC(O)(c1ccccc1)C(COc1ccccc1)CN(C)C (stereo not drawn) [Beispiel 2.10, 1-Dimethylamino-2-phenoxymethyl-3-phenyl-undecanol-(3)]
IC50 (Noradrenalin-Aufnahme): 0.038 µM | IC50 (Serotonin-Aufnahme; [1]): 0.049 µM

CN(C)CC(CSc1ccccc1)C(O)c1ccccc1 (stereo not drawn) [Beispiel 1.6, 1-Dimethylamino-3-phenyl-2-thiophenoxymethyl-propanol-(3)]
absolute Wirkstärke bei der Hemmung der Noradrenalin-Aufnahme (Noradrenalin-Aufnahme): 8 -fach | IC50 (Noradrenalin-Aufnahme): 0.0017 µM | IC50 (Serotonin-Aufnahme; [1]): 0.065 µM

CCCC(O)(c1ccccc1)C(COc1ccc(Cl)cc1)CN(C)C (stereo not drawn) [Beispiel 2.6, 2-(4-Chlorphenoxymethyl)-1-dimethylamino-3-phenyl-hexanol-(3) Hydrochlorid]
IC50 (Noradrenalin-Aufnahme): 0.2 µM | IC50 (Serotonin-Aufnahme; [1]): 0.0036 µM

CN(C)CC(COc1ccc(Br)cc1)C(O)c1ccccc1 (stereo not drawn) [Beispiel 1.4, 2-(4-Bromphenoxymethyl)-1-dimethylamino-3-phenylpropanol-(3) Hydrochlorid]
IC50 (Noradrenalin-Aufnahme): 0.017 µM | IC50 (Serotonin-Aufnahme; [1]): 0.073 µM

CCCCCCCCCCCCC(O)(c1ccccc1)C(COc1ccccc1)CN(C)C (stereo not drawn) [Beispiel 2.11, 1-Dimethylamino-2-phenoxymethyl-3-phenyl-pentadecanol-(3)]
IC50 (Noradrenalin-Aufnahme): 0.5 µM | IC50 (Serotonin-Aufnahme; [1]): 0.3 µM
